Here are results for one compound from publication PMC10485887, “PET Evaluation of the Novel F-18 Labeled Reversible Radioligand [^18F]GEH200449 for Detection of Monoamine Oxidase-B in the Non-Human Primate Brain” (ACS Chemical Neuroscience, 2023).

Series [1] can be described thus: Fraction of unchanged radioligand in arterial plasma (radiometabolite analysis). To be noted: 30 min after injection. It is filed as in vivo, Macaca fascicularis. On the procedure: (§1) At start of PET data acquisition, a sterile physiological phosphate buffer solution (pH = 7.4) of [^18F]GEH200449 (injected radioactivity, 107–167 MBq) was injected as a bolus into a sural vein. Emission data were acquired in list mode for 123 min. Arterial blood was sampled as previously described[28] using an automated blood sampling system (ABSS) during the first 3 min of each PET measurement. Subsequently, arterial blood samples (0.7–2.5 mL) were manually drawn at 7, 15, 30, 60, 90, and 120 min after injection of [^18F]GEH200449. After centrifugation, 0.15–1.0 mL of plasma was pipetted and plasma radioactivity was measured in a well counter. In addition, samples were taken directly from the ABSS at 0.5, 1, 1.5, 2, 2.5, and 3 min for cross-calibration with the well counter and for the determination of the plasma-to-blood ratio.
The fraction of plasma radioactivity corresponding to the unchanged radioligand in plasma was determined from arterial plasma samples collected at 2, 7, 15, 30, 60, 90, and 120 min after injection of [^18F]GEH200449 according to previously described procedures.[29]

Series [2] in a line: PET whole-brain radioactivity (brain exposure) at baseline. It is filed as in vivo, Macaca fascicularis. Conditions: for whole-brain radioactivity, maximum concentration: IV injection. The protocol: Two male and three female NHPs (#1–5) of the species M. fascicularis, weighing 4.2–8.8 kg, were supplied by the Astrid Fagraeus Laboratory, Karolinska Institutet, Solna, Sweden. Anesthesia was initiated by intramuscular injection of ketamine hydrochloride (ca. 10 mg/kg, Ketalar, Pfizer) and maintained by intravenous infusion of a mixture of ketamine hydrochloride (4 mg/kg/h) and xylazine hydrochloride (0.4 mg/kg/h Rompun Vet., Bayer).
PET measurements were conducted using the high-resolution research tomograph system (Siemens Molecular Imaging, Knoxville, TN, USA) for NHPs #1–4 and using the LFER 150 PET/CT system (Mediso Ltd., Budapest, Hungary) for NHP #5.
as §1
Dynamic images were reconstructed as previously described.[30],[31] Regions of interest (ROIs) for the whole brain and selected regions (caudate nucleus, putamen, thalamus, occipital cortex, prefrontal cortex, and cerebellum) were manually delineated on T1-weighted magnetic resonance images (MRIs) acquired as previously described.[21],[27] PET images were coregistered to the MRIs, and time-activity curves were generated by pooling ROIs for each paired anatomical region and applying the pooled ROIs to the coregistered PET images. […]

Turning to `O=c1ccoc2ccc(OCc3ccc([18F])nc3)cc12` [[^18F]GEH200449], the “parent radioligand remaining unchanged in plasma” value in series [1] is 5–28%. Besides, the “whole-brain radioactivity, maximum concentration” value in series [2] is 4.0–6.4 %ID; in series [2] (n = 5 NHPs), 3.4–5.2 SUV. The “time to maximum whole-brain radioactivity concentration” value in series [2] (after IV injection) fell in the range of 1.8 to 7.5 min.
